This assay deals with T1, human β2AR (Homo sapiens, UniProt P07550).
T1 construct: made in house; host or cells: Trichoplusia ni larvae orally infected with occluded recombinant baculovirus; crude membrane fraction
In words: Saturation binding of [^3H]-dihydroalprenolol to T. ni membranes expressing β2AR. Particulars: 4 days after oral infection. The protocol:
This vector was used to produce orally infectious occluded baculovirus as follows. Sf9 cells were infected with above vector and allowed to grow for approximately four days until their nuclei were filled with polyhedral inclusion bodies (PIBs). The cells were pelleted by centrifugation, and lysed by resuspension and douncing in SDS (0.5%). PIBs were pelleted from the lysate by a high-speed spin, washed with sodium chloride (500 mM), and resuspended in distilled water. T. ni larvae were infected with occluded baculovirus by applying drops of purified PIBs (˜10^7 PIBs per cube) to small cubes of insect diet. Newly molted 5th instar larvae (mass ˜100 mg) were starved for 6 hours and then permitted to feed on the infected diet. […] These larvae were frozen in liquid nitrogen and stored at −80° C. Larvae were subsequently lysed and a crude membrane fraction was prepared. Saturation binding was performed with [^3H]dihydroalprenolol, a βAR antagonist.

T1 sequence (P07550 whole entry): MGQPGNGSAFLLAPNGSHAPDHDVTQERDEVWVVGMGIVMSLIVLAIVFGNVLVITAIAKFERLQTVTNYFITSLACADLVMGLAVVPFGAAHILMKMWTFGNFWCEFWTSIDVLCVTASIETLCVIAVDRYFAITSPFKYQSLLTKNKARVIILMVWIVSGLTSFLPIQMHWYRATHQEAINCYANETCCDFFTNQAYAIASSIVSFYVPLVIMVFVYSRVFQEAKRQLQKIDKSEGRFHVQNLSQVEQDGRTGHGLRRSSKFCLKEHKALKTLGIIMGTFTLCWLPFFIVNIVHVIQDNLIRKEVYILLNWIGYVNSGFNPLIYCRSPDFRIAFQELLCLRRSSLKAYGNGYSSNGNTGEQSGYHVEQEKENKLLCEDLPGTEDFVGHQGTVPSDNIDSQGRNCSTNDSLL

What is called Kd is a measure of binding affinity in units of concentration. `CCCc1ccccc1OCC(O)CNC(C)C` (centres unmarked) [[^3H]-dihydroalprenolol] registered a Bmax of 16 pmol/mg total protein and a Kd of 1.6 nM.
